# Key:
# mouse [1] = conditions: Combined chronic toxicity/carcinogenicity, cd1, Oral, Feed, dose end: 104 week, group: systemic
# rabbit [2] = conditions: Prenatal developmental toxicity study, new zealand white, Oral, Gavage/Intubation, dose end: 19 GD
# mouse [3] = conditions: Carcinogenicity, cd1, Oral, Feed, dose end: 104 week, group: systemic
# dog [4] = conditions: Chronic toxicity; beagle; Oral; Feed; dose end: 6 month; group: systemic; systemic / clinical chemistry / cholesterol / cholesterol + systemic / organ weight / liver / absolute + systemic / organ weight / liver / …
# rat [5] = conditions: Multigenerational reproductive toxicity study, wistar, Oral, Feed, dose end: 2 generation
# rat [6] = conditions: Prenatal developmental toxicity study, sprague dawley, Oral, Gavage/Intubation, dose end: 15 GD
# rat [7] = conditions: Subchronic oral toxicity in rodents, sprague dawley, Feed, dose end: 13 week, group: systemic, systemic / clinical chemistry / globulins / globulins + systemic / clinical chemistry / protein / protein + systemic / organ weight / liver…
# rat [8] = conditions: Multigenerational reproductive toxicity study, sprague dawley, Oral, Feed, dose end: 2 generation
# rabbit [9] = conditions: Prenatal developmental toxicity study, other, Oral, Gavage/Intubation, dose end: 18 GD
# mouse [10] = conditions: Subchronic oral toxicity in rodents, cd1, Feed, dose end: 13 week, group: systemic
# rat [11] = conditions: Combined chronic toxicity/carcinogenicity, sprague dawley, Oral, Feed, dose end: 104 week, group: systemic
# dog [12] = conditions: Subchronic oral toxicity in nonrodent, beagle, Feed, dose end: 13 week, group: systemic
# [13] = systemic / organ weight / liver / absolute + systemic / pathology gross / spleen / enlarged + systemic / pathology microscopic / kidney / …
# [14] = group: developmental, developmental / developmental malformation / bone / incomplete ossification + developmental / developmental malformation / bone / …
# [15] = group: developmental, developmental / developmental malformation / bone / unossified
# [16] = group: maternal, reproductive / reproductive performance / aborted / aborted + systemic / in life observation / body weight / body weight gain
# [17] = systemic / organ weight / liver / absolute + systemic / organ weight / liver / relative to body weight + systemic / pathology gross / spleen…
# [18] = systemic / pathology microscopic / liver / [other]
# [19] = group: offspring, systemic / in life observation / body weight / offspring (pup) weight gain + systemic / organ weight / liver / relative to body weight
# [20] = group: offspring, systemic / in life observation / body weight / offspring (pup) weight gain + systemic / organ weight / liver / relative to body weight + …
# [21] = group: parental, systemic / organ weight / kidney / absolute + systemic / organ weight / kidney / relative to body weight + systemic / organ weight / liver…
# [22] = group: reproductive, reproductive / reproductive performance / precoital interval / precoital interval
# [23] = group: developmental, developmental / developmental malformation / bone / bipartite ossification + developmental / developmental malformation / bone / short …
# [24] = group: maternal, systemic / in life observation / body weight / body weight gain
# [25] = group: maternal, systemic / in life observation / body weight / body weight gain + systemic / in life observation / food consumption / food consumption
# [26] = group: offspring, developmental / offspring survival late / viability index / viability index + systemic / in life observation / body weight / offspring (pup…
# [27] = group: parental, systemic / organ weight / adrenal gland / relative to body weight + systemic / organ weight / adrenal gland / relative to brain weight
# [28] = group: parental, systemic / organ weight / adrenal gland / relative to body weight + systemic / organ weight / adrenal gland / relative to brain weight + …
# [29] = group: developmental, developmental / developmental malformation / bone / full supernumerary
# [30] = group: maternal, systemic / in life observation / body weight / body weight gain + systemic / in life observation / food consumption / food consumption + …
# [31] = systemic / clinical chemistry / alkaline phosphatase (alp/alk) / alkaline phosphatase (alp/alk) + systemic / organ weight / liver / absolute…
# [32] = systemic / in life observation / clinical signs / tooth-malocclusion
# [33] = systemic / clinical chemistry / triglycerides / triglycerides + systemic / in life observation / clinical signs / mucoid stools + systemic…
# [34] = systemic / in life observation / clinical signs / vomiting
smiles,measurement,setting,value
CNc1cnn(-c2cccc(C(F)(F)F)c2)c(=O)c1Cl [Norflurazon],NEL,mouse [1]; systemic / organ weight / liver / absolute + systemic / organ weight / liver / relative to body weight + systemic / pathology gross / liver…,12.8 mg/kg/day
same,LEL,mouse [1]; [13],58.7 mg/kg/day
same,LOAEL,mouse [1]; [13],58.7 mg/kg/day
same,NOAEL,mouse [1]; [13],12.8 mg/kg/day
same,LOAEL,rabbit [2]; [14],30 mg/kg/day
same,NOAEL,rabbit [2]; [14],10 mg/kg/day
same,LEL,rabbit [2]; [15],10 mg/kg/day
same,NEL,rabbit [2]; [15],< 10 mg/kg/day
same,LEL,rabbit [2]; [16],60 mg/kg/day
same,LOAEL,rabbit [2]; [16],60 mg/kg/day
same,NEL,rabbit [2]; [16],30 mg/kg/day
same,NOAEL,rabbit [2]; [16],30 mg/kg/day
same,LOAEL,mouse [3]; [17],58.7 mg/kg/day
same,NOAEL,mouse [3]; [17],12.8 mg/kg/day
same,LEL,mouse [3]; [18],12.8 mg/kg/day
same,NEL,mouse [3]; [18],< 12.8 mg/kg/day
same,LEL,dog [4],4.77 mg/kg/day
same,LOAEL,dog [4],4.77 mg/kg/day
same,NEL,dog [4],1.58 mg/kg/day
same,NOAEL,dog [4],1.58 mg/kg/day
same,LEL,rat [5]; [19],67.8 mg/kg/day
same,LOAEL,rat [5]; [19],67.8 mg/kg/day
same,NEL,rat [5]; [20],13.2 mg/kg/day
same,NOAEL,rat [5]; [20],13.2 mg/kg/day
same,LEL,rat [5]; [21],50.8 mg/kg/day
same,LOAEL,rat [5]; [21],50.8 mg/kg/day
same,NEL,rat [5]; [21],10.2 mg/kg/day
same,NOAEL,rat [5]; [21],10.2 mg/kg/day
same,LEL,rat [5]; [22],102 mg/kg/day
same,LOAEL,rat [5]; [22],102 mg/kg/day
same,NEL,rat [5]; [22],50.8 mg/kg/day
same,NOAEL,rat [5]; [22],50.8 mg/kg/day
same,LEL,rat [6]; [23],400 mg/kg/day
same,LOAEL,rat [6]; [23],> 400 mg/kg/day
same,NEL,rat [6]; [23],200 mg/kg/day
same,NOAEL,rat [6]; [23],≥ 400 mg/kg/day
same,LOAEL,rat [6]; [24],100 mg/kg/day
same,NOAEL,rat [6]; [24],< 100 mg/kg/day
same,LEL,rat [6]; [25],100 mg/kg/day
same,NEL,rat [6]; [25],< 100 mg/kg/day
CCOc1cc(C(C)(C)C)ccc1C1COC(c2c(F)cccc2F)=N1 (configuration not stated) [Etoxazole],LEL,rat [7],300 mg/kg/day
same,LOAEL,rat [7],300 mg/kg/day
same,NEL,rat [7],< 300 mg/kg/day
same,NOAEL,rat [7],< 300 mg/kg/day
same,LOAEL,"rat [8]; group: offspring, developmental / offspring survival late / viability index / viability index",157 mg/kg/day
same,LEL,rat [8]; [26],157 mg/kg/day
same,NEL,rat [8]; [26],31.6 mg/kg/day
same,NOAEL,rat [8]; [26],31.6 mg/kg/day
same,NEL,rat [8]; [27],33.4 mg/kg/day
same,NOAEL,rat [8]; [27],33.4 mg/kg/day
same,LEL,rat [8]; [28],139 mg/kg/day
same,LOAEL,rat [8]; [28],139 mg/kg/day
same,LEL,rabbit [9]; [29],1000 mg/kg/day
same,LOAEL,rabbit [9]; [29],1000 mg/kg/day
same,NEL,rabbit [9]; [29],200 mg/kg/day
same,NOAEL,rabbit [9]; [29],200 mg/kg/day
same,LEL,rabbit [9]; [30],1000 mg/kg/day
same,LOAEL,rabbit [9]; [30],1000 mg/kg/day
same,NEL,rabbit [9]; [30],200 mg/kg/day
same,NOAEL,rabbit [9]; [30],200 mg/kg/day
same,LOAEL,mouse [10]; [31],878 mg/kg/day
same,NEL,mouse [10]; [31],55.1 mg/kg/day
same,NOAEL,mouse [10]; [31],214 mg/kg/day
same,LEL,mouse [10]; systemic / organ weight / liver / absolute + systemic / organ weight / liver / relative to body weight + systemic / pathology microscopic / …,214 mg/kg/day
same,LOAEL,rat [11]; systemic / in life observation / clinical signs / tooth nos,187 mg/kg/day
same,NOAEL,rat [11]; systemic / in life observation / clinical signs / tooth nos + systemic / hematology / blood clotting / blood clotting - activated partial …,1.83 mg/kg/day
same,LEL,rat [11]; [32],2.07 mg/kg/day
same,NEL,rat [11]; [32],< 2.07 mg/kg/day
same,LOAEL,dog [12]; [33],53.7 mg/kg/day
same,NOAEL,dog [12]; [33],5.33 mg/kg/day
same,LEL,dog [12]; [34],5.33 mg/kg/day
same,NEL,dog [12]; [34],< 5.33 mg/kg/day
